Test results from publication PMC7582544, “Bioactive Ent-Kaurane Diterpenes Oridonin and Irudonin Prevent Cancer Cells Migration by Interacting with the Actin Cytoskeleton Controller Ezrin” (International Journal of Molecular Sciences, 2020).
Like-named read-outs stand apart in the source and are kept apart here.

Assays:
MKN28 = test: cells; parameters: species or system C2C12, A375; PrestoBlue cell proliferation/viability assay, absorbance 570 nm, 24 h; details: Homo sapiens, MKN-28, 24 h
A375 = test: cells; parameters: species or system C2C12, MKN28; PrestoBlue cell proliferation/viability assay, absorbance 570 nm, 24 h; details: Homo sapiens, A-375, 24 h
Ezrin [1] = target: T1, Ezrin (Homo sapiens, UniProt P15311); test: CETSA dose response at […] °C in MKN28 cells (EC50 […] in A375), Tm shift […] to […] °C; DARTS with MS and Western blot; format: cell-based
T1 construct: gene EZR
T1 sequence (P15311 whole entry): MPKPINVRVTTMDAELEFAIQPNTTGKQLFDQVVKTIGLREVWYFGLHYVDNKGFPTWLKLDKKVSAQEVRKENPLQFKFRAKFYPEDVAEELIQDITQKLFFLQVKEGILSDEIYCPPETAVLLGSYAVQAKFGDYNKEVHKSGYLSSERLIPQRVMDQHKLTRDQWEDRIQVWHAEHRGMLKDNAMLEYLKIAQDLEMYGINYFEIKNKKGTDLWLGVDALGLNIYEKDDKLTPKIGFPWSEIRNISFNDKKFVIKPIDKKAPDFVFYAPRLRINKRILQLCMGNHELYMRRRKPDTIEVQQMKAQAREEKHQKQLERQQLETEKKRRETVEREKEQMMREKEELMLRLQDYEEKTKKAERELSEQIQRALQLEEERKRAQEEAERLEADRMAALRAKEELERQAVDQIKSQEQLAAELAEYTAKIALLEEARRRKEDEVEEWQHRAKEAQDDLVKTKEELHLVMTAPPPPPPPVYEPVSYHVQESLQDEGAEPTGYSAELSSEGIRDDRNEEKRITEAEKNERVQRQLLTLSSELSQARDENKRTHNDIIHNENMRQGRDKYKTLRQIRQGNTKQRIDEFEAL

C2C12 = test: cells; parameters: species or system MKN28, A375; PrestoBlue cell proliferation/viability assay, absorbance 570 nm, 24 h; details: Mus musculus, 24 h, non-cancer myoblasts
Protocol: Cell proliferation rate was evaluated measuring mitochondrial metabolic activity through the use of PrestoBlueTM (PB) (Cat. N. A13262, Invitrogen), employed according to the manufacturer’s protocol. Cells were plated onto 96-well plates (8000 cells/well), treated with increasing concentrations (10–60 μM) of Ori or Iru for 24 h and then incubated with PB reagent at 10% final concentration for 1 h. The absorbance was monitored at 570 nm with a reference wavelength set a 600 nm and using a microplate reader (Multiskan Go, Thermo Scientific, Waltham, MA, USA). Cell viability was expressed as a percentage relative to the un-treated cells cultured in DMEM with 0.1% DMSO and set to 100%. The dose compounds reducing cell number by 50% (IC50 values) were calculated using the respective dose–response curves according to the manufacturer’s protocol. IC50 values were used for the subsequent proteomic experiments. Instead, the non-toxic concentration of 10 μM was used for the functional assays. […] To that aim, we first evaluated the cytotoxic potential of both diterpenes on the C2C12 cells; therefore, we exposed for 24 h C2C12 myoblasts to increasing concentrations (10–60 μM) of Ori or of Iru, and, subsequently, we performed cell proliferation assay (Figure 1).

Ezrin [2] = target: T1, Ezrin; test: CETSA dose response at […] °C in A375 cells (EC50 […] in MKN28), Tm shift […] to […] °C; DARTS with MS and Western blot; format: cell-based

Compound	IC50 (MKN28; read-out: Iru IC50)	IC50 (A375; read-out: Iru IC50)	EC50 (Ezrin [1])	IC50 (C2C12; read-out: Iru IC50)	IC50 (MKN28; read-out: Ori IC50)	IC50 (A375; read-out: Ori IC50)	EC50 (Ezrin [2])	IC50 (C2C12; read-out: Ori IC50)
C=C1C(=O)[C@@]23C(CC[C@@H]1[C@H]2O)[C@]12CCCC(C)(C)C1[C@H](O)[C@@]3(O)O[C@H]2O (some centres unmarked) [Iru]	25 µM	35 µM	13 µM	50 µM				
C=C1C(=O)[C@]23[C@H](O)[C@H]1CC[C@H]2[C@@]12CO[C@]3(O)[C@@H](O)[C@@H]1C(C)(C)CC[C@@H]2O [Ori, (1S,2S,5S,8R,9S,10S,11R,15S,18R)-9,10,15,18-tetrahydroxy-12,12-dimethyl-6-methylidene-17-oxapentacyclo (7.6.2.15,8.01,11.02,8) octadecan-7-one]					20 µM	25 µM	19 µM	30 µM
